# Experiments:
# CC-LP-1 [1] = assay: Antiproliferative activity against human CC-LP-1 cells expressing FGFR2 N550K mutant assessed as inhibition of cell growth incubated for 3 days by Cell-titer glo assay; conditions: CC-LP-1, 72 h
# [2] = Antiproliferative activity against human ICC13-7 cells expressing FGFR2 N550K mutant assessed as inhibition of cell growth incubated for 10 days by Cell-titer glo assay; conditions: ICC13-7, 240 h
# CC-LP-1 [3] = assay: Antiproliferative activity against human CC-LP-1 cells expressing FGFR2 V565F mutant assessed as inhibition of cell growth incubated for 3 days by Cell-titer glo assay; conditions: CC-LP-1, 72 h
# RT-112 [4] = assay: Antiproliferative activity against human RT-112 cells expressing FGFR3 N540K mutant assessed as inhibition of cell growth incubated for 5 days by Cell-titer glo assay; conditions: RT-112, 120 h
# RT-112 [5] = assay: Antiproliferative activity against human RT-112 cells expressing FGFR3 K650M mutant assessed as inhibition of cell growth incubated for 5 days by Cell-titer glo assay; conditions: RT-112, 120 h
# RT-112 [6] = assay: Antiproliferative activity against human RT-112 cells expressing FGFR3 assessed as inhibition of cell growth incubated for 5 days by Cell-titer glo assay; conditions: RT-112, 120 h
# [7] = Antiproliferative activity against human ICC13-7 cells expressing FGFR2 V565F mutant assessed as inhibition of cell growth incubated for 10 days by Cell-titer glo assay; conditions: ICC13-7, 240 h
# [8] = Antiproliferative activity against human ICC13-7 cells assessed as inhibition of cell growth incubated for 3 days by Cell-titer glo assay; conditions: ICC13-7, 72 h
# CC-LP-1 [9] = assay: Antiproliferative activity against human CC-LP-1 cells assessed as inhibition of cell growth incubated for 3 days by Cell-titer glo assay; conditions: CC-LP-1, 72 h
# SNU-16 = assay: Antiproliferative activity against human SNU-16 cells assessed as inhibition of cell growth incubated for 5 days by Cell-titer glo assay; conditions: SNU-16, 120 h
# RT-112 [10] = assay: Antiproliferative activity against human RT-112 cells assessed as inhibition of cell growth incubated for 5 days by Cell-titer glo assay; conditions: RT-112, 120 h
# [11] = Antitumor activity against patient derived STO357 PDX cells xenografted in mouse assessed as tumor growth inhibition at 1 mg/kg,po administrated once daily for 3 weeks relative to control; format: functional; conditions: Homo sapiens, 504 h, read-out: TGI
# RT-112 [12] = assay: Antiproliferative activity against human RT-112 cells expressing FGFR3 V555M mutant assessed as inhibition of cell growth incubated for 5 days by Cell-titer glo assay; conditions: RT-112, 120 h
# CC-LP-1 [13] = assay: Antiproliferative activity against human CC-LP-1 cells expressing FGFR2 N550H mutant assessed as inhibition of cell growth incubated for 3 days by Cell-titer glo assay; format: functional, cell-based; conditions: CC-LP-1, 72 h
# [14] = Total clearance in Sprague-Dawley rat at 5 mg/kg,iv administrated at 0.25 to 24 hrs by LC-MS/MS analysis; format: ADME, organism-based; conditions: in vivo, time 0.25-24 hrs
# [15] = Total clearance in Beagle dog at 5 mg/kg,iv administrated at 0.25 to 24 hrs by LC-MS/MS analysis; format: ADME, organism-based, Canis lupus familiaris; conditions: in vivo, time 0.25-24 hrs
# [16] = Intrinsic clearance in human hepatocyte measured per 10^6 cells; format: ADME, cell-based; conditions: hepatocytes, read-out: CLH
# [17] = AUC (0 to 24 hrs) in Sprague-Dawley rat at 15 mg/kg,po administrated at 0.25 to 24 hrs by LC-MS/MS analysis; format: ADME, organism-based; conditions: in vivo, time 0.25-24 hrs
# [18] = AUC (0 to 24 hrs) in Beagle dog at 10 mg/kg,po administrated at 0.25 to 24 hrs by LC-MS/MS analysis; format: ADME, organism-based, Canis lupus familiaris; conditions: in vivo, time 0.25-24 hrs
# [19] = Oral bioavailability in Beagle dog at 10 mg/kg administrated at 0.25 to 24 hrs by LC-MS/MS analysis; format: ADME, organism-based, Canis lupus familiaris; conditions: in vivo, time 0.25-24 hrs
# [20] = Cmax in Beagle dog at 10 mg/kg,po administrated at 0.25 to 24 hrs by LC-MS/MS analysis; format: ADME, organism-based, Canis lupus familiaris; conditions: in vivo, time 0.25-24 hrs
# [21] = Oral bioavailability in Sprague-Dawley rat at 15 mg/kg administrated at 0.25 to 24 hrs by LC-MS/MS analysis; format: ADME, organism-based; conditions: in vivo, time 0.25-24 hrs
# [22] = Half life in Beagle dog at 5 mg/kg,iv administrated at 0.25 to 24 hrs by LC-MS/MS analysis; format: ADME, organism-based, Canis lupus familiaris; conditions: in vivo, time 0.25-24 hrs
# [23] = Cmax in Sprague-Dawley rat at 15 mg/kg,po administrated at 0.25 to 24 hrs by LC-MS/MS analysis; format: ADME, organism-based; conditions: in vivo, time 0.25-24 hrs
# [24] = Half life in Sprague-Dawley rat at 5 mg/kg,iv administrated at 0.25 to 24 hrs by LC-MS/MS analysis; format: ADME, organism-based; conditions: in vivo, time 0.25-24 hrs
# [25] = Intrinsic clearance in human liver microsomes; format: ADME, Microsome; conditions: read-out: CLH
IC50 (SNU-16),SMILES,IC50 (CC-LP-1 [1]),IC50 [2],IC50 (CC-LP-1 [3]),IC50 (RT-112 [4]),IC50 (RT-112 [5]),IC50 (RT-112 [6]),IC50 [7],IC50 [8],IC50 (CC-LP-1 [9]),IC50 (RT-112 [10]),IC50 (RT-112 [12]),also measured
3.9 nM,CCN1C(=O)N(c2c(F)c(OC)cc(OC)c2F)Cc2cnc3[nH]c(CN4CCOCC4)cc3c21 [PEMIGATINIB],493 nM,416 nM,1630 nM,1880 nM,174 nM,6 nM,> 2350 nM,2.6 nM,3.6 nM,3.3 nM,> 1150 nM,inhibition in vivo at 1 mg/kg [11]: 57%; IC50 (CC-LP-1 [13]): 48.7 nM
6 nM,C=CC(=O)N1C[C@@H](n2nc(C#Cc3cc4ncn(C5CC5)c4cc3Cl)c(C(N)=O)c2NC)C[C@@H]1COC,6.5 nM,6.1 nM,1.8 nM,26.3 nM,12.8 nM,11.2 nM,0.9 nM,2.2 nM,4.3 nM,7.2 nM,19.5 nM,clearance [14]: 26.8 mL/min/kg; clearance [15]: 44.4 mL/min/kg; hepatocyte CLint [16]: 14.4 µL/min/1e6 cells; AUC(0-t) [17]: 1500 ng·h/mL; AUC(0-t) [18]: 498 ng·h/mL; bioavailability [19]: 13.1%; Cmax [20]: 289 ng/mL; bioavailability [21]: 16.4%; half-life [22]: 4.94 h; Cmax [23]: 519 ng/mL; half-life [24]: 6.17 h; microsomal CLint [25]: 106 µL/min/mg
